Experimental data as given in US10273313B2, “Multimeric mannosides, a process for preparing the same and their uses as a drug” (CENTRE NATIONAL DE LA RECHERCHE SCIENTIFIQUE, priority 2012, dated 2019).

What was measured:
human Jurkat cells = assay: Prevention of FimH-induced apoptosis of Jurkat cells (24 h)
Procedure: Eventually, we tested the ability of mannose-based inhibitors to prevent the induction of cell death of human Jurkat cells under the treatment with FimH. We cultures cells with the indicated compound for 24 h and counter percentage of viable (AnV−/Pi−), apoptotic (AnV+/Pi−) and necrotic cells (AnV+/PI+). […] 2. […] 3.
Apoptosis was induced by UV-B irradiation with 90 mJ/cm^2, apoptosis of human PMN cells was induced by 24 h aging. To quantify the rate of apoptosis, cells were analyzed by flow cytometry or fluorescent microscopy. Amongst other features, apoptosis is characterized by blebbing of the cellular membrane, leading to a decrease in the forward scatter (FSC) and an increase in the sideward scatter (SSC). For detection of phosphatidylserine (PS) exposure on the cell surface staining with FITC conjugated annexin V (Böhringer, Mannheim, Germany) in combination with propidium iodide (PI) (AxV/PI) was performed. 200.000 cells were stained for 30 minutes at 4° C. with 200 ng of AxV-FITC and 500 ng propidium iodide (PI) in 500 μl Ringer's solution [Nicoletti, Migliorati, Pagliacci, Grignani and Riccardi, A rapid and simple method for measuring thymocyte apoptosis by propidium iodide staining and flow cytometry. J Immunol Methods, 1991. 139.271-9]. The samples were immediately analyzed by flow cytometry of fluorescent microscopy.

[1] = tested on: AIEC LF82 strain adhesion to T84 intestinal epithelial cells; assay: Adhesion assay on T84 cells, cells incubated 1 h with mannoside prior infection (Example 21.1); format: cell-based, Escherichia coli
Procedure: E. coli strain LF82 was isolated from a chronic ileal lesion of a patient with Crohn's disease (CD). Bacteria were grown routinely in Luria-Bertani (LB) broth overnight at 37° C. Intestinal epithelial cells T84 derived from colonic adenocarcinoma were maintained in an atmosphere containing 5% CO2 at 37° C. in DMEM/F12 (50/50) medium supplemented with 10% (v/v) heat-inactivated fetal calf serum (FCS), 1% L-glutamine, 100 000 U·l^−1 penicillin, 100 mg·l^−1 streptomycin, 25 μg·l^−1 amphotericin B.
T84 cells were seeded in 48-well tissue culture plates with 1.5×10^5 cells per well and grown for 48 h. Cells were incubated 1 h prior infection with each mannoside at a final concentration of 100; 10; 1 or 0.1 μM in complete medium without antibiotics, containing heat inactivated fetal calf serum (FCS) and were next infected with AIEC LF82 strain at a multiplicity of infection (MOI) of 10 bacteria per cell. After a 3 h incubation period at 37° C., the monolayers were washed in phosphate-buffered saline (PBS; pH 7.2). The epithelial cells were then lysed with 1% Triton X-100 in deionized water. Samples were diluted and plated onto Luria Bertani agar plates to determine the number of cfu recovered from the lysed monolayers.
Results were expressed in percentage of residual adhesion, considering adhesion level of AIEC LF82 without mannoside treatment as 100%.

[2] = tested on: AIEC strain LF82 adhesion to T84 intestinal epithelial cells; assay: Adhesion assay on T84 cells with thiazolylaminomannosides (Example 22.3); format: cell-based, Escherichia coli
How it was run: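 CEACAM6-overexpressing T84 cells pre-incubated 1 h with compound (0.1, 1, 10, 100 μM), then infected with AIEC LF82 at MOI 10 for 3 h in compound presence. Cell-associated bacteria counted after washing; residual adhesion expressed relative to untreated (100%).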

OCC1OC(OCCCCCCCOCc2cn(CC3OC4OC5C(Cn6cc(COCCCCCCCOC7OC(CO)C(O)C(O)C7O)nn6)OC(OC6C(Cn7cc(COCCCCCCCOC8OC(CO)C(O)C(O)C8O)nn7)OC(OC7C(Cn8cc(COCCCCCCCOC9OC(CO)C(O)C(O)C9O)nn8)OC(OC8C(Cn9cc(COCCCCCCCOC%10OC(CO)C(O)C(O)C%10O)nn9)OC(OC9C(Cn%10cc(COCCCCCCCOC%11OC(CO)C(O)C(O)C%11O)nn%10)OC(OC%10C(Cn%11cc(COCCCCCCCOC%12OC(CO)C(O)C(O)C%12O)nn%11)OC(OC3C(O)C4O)C(O)C%10O)C(O)C9O)C(O)C8O)C(O)C7O)C(O)C6O)C(O)C5O)nn2)C(O)C(O)C1O (centres unmarked) [Compound 2]
Toxicity to Jurkat cells (human Jurkat cells): not toxic
Prevention of apoptosis induction by FimH (human Jurkat cells; 10 nM): effectively prevented apoptosis induction
Prevention of apoptosis induction by FimH (human Jurkat cells; 100 nM): effectively prevented apoptosis induction
Concentration reaching around 75% of binding inhibition (25% line) [1]: 1 µM

CCCCCCCO[C@H]1O[C@H](CO)[C@@H](O)[C@H](O)[C@@H]1O [HM, Heptylmannoside, reference compound]
Inhibitory potency relative to α-D-mannose [2]: 100 times
Inhibitory effect on adhesion ([2]; 100 nM): no significant effect
AIEC remaining attached to the cells (residual adhesion) ([2]; 1 μM): No significant decrease
Residual adhesion ([2]; 10 μM): 52.4%
